From patent publication US9463197B2, “Method for treating abnormal polyglutamine-mediated disease” (NATIONAL TAIWAN NORMAL UNIVERSITY, priority 2013, dated 2016)

How the values were obtained:
porcine kidney trehalase = target: T1, porcine kidney trehalase (Sus scrofa, UniProt I3LIR5); assay: Inhibition of analogs against trehalase activity (glucose from trehalose, HPLC); type: biochemical; details: preincubated 30 min at 37°C
T1 sequence (I3LIR5 24-583): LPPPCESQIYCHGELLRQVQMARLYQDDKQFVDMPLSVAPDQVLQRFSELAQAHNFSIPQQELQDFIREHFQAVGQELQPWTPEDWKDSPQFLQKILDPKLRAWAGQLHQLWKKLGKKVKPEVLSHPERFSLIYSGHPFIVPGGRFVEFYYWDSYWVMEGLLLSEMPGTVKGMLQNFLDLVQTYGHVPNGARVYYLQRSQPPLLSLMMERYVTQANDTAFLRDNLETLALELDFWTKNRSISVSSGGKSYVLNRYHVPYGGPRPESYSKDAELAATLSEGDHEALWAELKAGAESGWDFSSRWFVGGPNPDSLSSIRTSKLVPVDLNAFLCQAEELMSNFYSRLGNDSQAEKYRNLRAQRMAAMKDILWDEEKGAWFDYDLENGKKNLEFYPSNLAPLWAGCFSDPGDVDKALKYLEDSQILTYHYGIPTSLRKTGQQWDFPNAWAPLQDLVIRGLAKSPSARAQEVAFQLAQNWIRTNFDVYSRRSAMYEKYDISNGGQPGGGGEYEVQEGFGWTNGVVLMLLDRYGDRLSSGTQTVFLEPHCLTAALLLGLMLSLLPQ
Procedure: Hydrolysis of trehalose and analogs was tested using porcine kidney trehalase (Sigma-Aldrich, T8778). The standard reaction was performed by adding 0.001 unit of trehalase into 50 μl reaction solution containing 135 mM citric acid (pH 5.7) and 28 mM trehalose or trehalose analogs. […] The standard reaction was performed by adding 0.001 unit of trehalase into 50 μl reaction solution containing 135 mM citric acid (pH 5.7) and 44.8 mM α-D-lactulose, 44.8 mM α-D-melibiose, 0.2 μM validamycin A, or 0.2 μM validoxylamine A. Trehalase was incubated with analog for 30 min at 37° C., and the reaction was then started by addition of trehalose. After incubation at 37° C. for 2 hr, the reaction was terminated by heating the mixture in boiling water for 15 min. The activity of trehalase was assayed by measuring the amount of glucose produced from trehalose. The amount of carbohydrates after each enzymatic reaction was measured using a high-performance liquid chromatography (HPLC) system (Schambeck SFD 2100) equipped with an refractive index (RI) detector (SFD, RI 2000) at a flow rate of 1 ml/min. A carbohydrate analysis column (Shodex SUGAR SZ5532, 6.0 mm ID×150 mm L) equilibrated with 75% acetonitrile, 24% Milli-Q water, and 1% formic acid was used. The RI detector and column oven temperature were set to 40 and 60° C., respectively.
Hydrolysis of trehalose, lactulose and melibiose (28 mM) was tested using porcine kidney trehalase (1 mU).

293 ATXN3/Q75-GFP cells = assay: ATXN3/Q75 aggregation assay (high content analysis); type: cell-based; details: at 100 nM; doxycycline and oxaliplatin 6 days; positive control
Procedure: 293 ATXN3/Q75-GFP cells were plated into 96-well (2×10^4/well) dishes, grown for 24 hr and treated with different concentrations of the trehalose or analogs (100 nM˜100 μM) and suberoylanilide hydroxamic acid (SAHA, Cayman Chemical) for 8 hr. Then, doxycycline (10 μg/mL, BD) was added to the medium in each well to induce ATXN3/Q75-GFP expression for 6 days. Oxaliplatin (5 μM, Sigma) was also added to increase aggregate accumulation through inhibition of cell division. Then, cells were stained with Hoechst 33342 (0.1 μg/mL, Sigma) and aggregation percentage was assessed by high content analysis (HCA) system (ImageXpressMICRO, Molecular Devices), with excitation/emission wavelengths at 482/536 (EGFP).
In the present example, the influences of the trehalose and analogs and HDAC inhibitor SAHA in the ATXN3/Q75-GFP cells were respectively examined. After 6 days of the treatment of doxycycline and oxaliplatin, the fluorescence microscopy images were observed, and aggregation percentage of ATXN3/Q75-GFP cells was assessed by high-content analysis system. The result was shown in FIG. 3, as a positive control, HDAC inhibitor SAHA reduced the ATXN3/Q75 aggregation to 85% (at 100 nM) as compared to untreated cells (100%).

Structure (SMILES) | Inhibition of trehalase activity (glucose generated from trehalose) (porcine kidney trehalase; 44.8 mM analog) | Inhibition of trehalase activity (glucose generated from trehalose) (porcine kidney trehalase; 0.2 μM inhibitor) | other results
OC[C@H]1O[C@@H](O[C@@H]2[C@@H](CO)O[C@](O)(CO)[C@H]2O)[C@H](O)[C@@H](O)[C@H]1O [lactulose, α-D-lactulose] | did not inhibit the trehalase activity | – | –
O=C(CCCCCCC(=O)Nc1ccccc1)NO [SAHA, suberoylanilide hydroxamic acid] | – | – | ATXN3/Q75 aggregation as compared to untreated cells (100%) (293 ATXN3/Q75-GFP cells): 85%
OC[C@H]1O[C@H](OC[C@H]2O[C@H](O)[C@H](O)[C@@H](O)[C@@H]2O)[C@H](O)[C@@H](O)[C@H]1O [melibiose, D-(+)-melibiose] | did not inhibit the trehalase activity | – | –
OCC1=C[C@H](N[C@H]2C[C@H](CO)[C@@H](O)[C@H](O)[C@H]2O)[C@H](O)[C@@H](O)[C@@H]1O [validoxylamine A] | – | can inhibit the trehalase activity | –
OCC1=C[C@@H](N[C@H]2C[C@H](CO)[C@@H](O[C@H]3O[C@@H](CO)[C@H](O)[C@@H](O)[C@@H]3O)[C@H](O)[C@H]2O)[C@H](O)[C@@H](O)[C@@H]1O [validamycin A] | – | can inhibit the trehalase activity | –
